The test system of experiment [1] is mouse 66 (mammary carcinoma) or MDA-MB-435 cells (human melanoma). Further details: method as in PMID 22201533. The conditions noted are these: nude mice bearing mouse 66 or MDA-MB-435 tumors; cited from earlier work.
Experiment [2] concerns ovarian cancer cell lines (SKOV3, OVCAR3, HEY A8, HEY A8 MDR). As to the kind of experiment: Cell viability (CellTiter-Glo) in a panel of four ovarian cancer cell lines. In kind it is cell-based. The conditions noted are these: increasing doses, 18 hours. The method, then:
(A) SKOV3, (B) OVCAR3 (C) HEY A8 and (D) HEY A8 MDR cells were treated with increasing doses of SW43, SW IV-52, SW43 plus SW IV-52, and SW IV-134 for 18 hours. Cell viability was determined by CellTiter-Glo assays [p < 0.015 (A), NS (B), p < 0.017 (C), p < 0.034 (D), one-way ANOVA].
Cells (1 × 10^4) were seeded into 96 well plates. Treatment as described in the figure legends was initiated the following day. Cell viability was determined 18 hours after treatment using CellTiter-Glo Luminiscent Viability Assay (Promega, Madison, WI). Data were recorded with a SpectraMax Gemini microplate spectrofluorometer, Molecular Devices (Silicon Valley, CA).
For orientation: Cellular ATP, detected with luciferase, serves as a proxy for viable cell number.

Experiment [3] relates to SKOV3 cells. In words: Blocking study: competition with uptake of fluorescent sigma-2 ligand SW120, flow cytometry. In kind it is cell-based. The conditions noted are these: SKOV3 cells pretreated 30 min with increasing concentrations, then 10 nM SW120 for 30 min. The protocol: Figure 1 Compound structures and cell binding characteristics of SW IV-134. (A) The chemical structures of sigma-2 ligand SW43, the SMAC peptidomimetic SW IV-52, and the chemical conjugate SW IV-134. Note that the chirality of SW IV-52 is fully retained in the drug conjugate (asterisks). […] SKOV3 cells were pretreated with increasing concentration of SW IV-134, followed by incubation with SW120, prior to analysis by flow cytometry.
SKOV3 cells (3 × 10^4/well) were seeded into 6 cm plates for 24 hours before treatment. The cells were incubated with 5, 10, 50, and 100 μM doses of SW IV-134 for 30 minutes at 37°C. After this step, 10 nM SW120 was added to the cell culture medium containing SW IV-134. After 30 minute incubation at 37°C, cells were washed twice with phosphate buffered saline (PBS) and harvested with 0.05% trypsin EDTA (Life Technologies, Grand Island, NY). The cells were centrifuged at 1000 × g for 5 minutes and pellets washed twice with PBS. Internalization of SW120 was determined by flow cytometer (FACSCalibur, BD Biosciences, San Jose, CA).
Supplementary file 1476-4598-13-50-S2.pdf: Additional file 2: Figure S1 Receptor binding characteristics of the individual components of SW IV-134. SKOV3 cells were pretreated with increasing concentration of (A) SW43 and (B) SW IV-52, followed by incubation with SW120, prior to analysis by flow cytometry. […] Click here for file
In general terms: Flow cytometry measures light scatter and fluorescence of single cells or particles in a stream.

“Also recorded” adds a separate entry of the source.

Results on 2 compounds are retold here after paper PMC4015918, “Conjugation to a SMAC mimetic potentiates sigma-2 ligand induced tumor cell death in ovarian cancer” (Molecular Cancer, 2014).

For the compound `COc1ccc(C)cc1NC(=O)OC1CC2CCCC(C1)N2CCCCCCCCCCNc1ccc([N+](=O)[O-])c2nonc12` (stereo not drawn) [SW120], in experiment [1], the “Tumor-selective uptake of SW120 in vivo” value is “taken up selectively by proliferating tumor cells and not by the generally quiescent peripheral blood mononuclear cells”. With `CN[C@@H](C)C(=O)N[C@H](C(=O)N1CCC[C@H]1C(=O)N[C@@H]1CCCc2ccccc21)C(C)(C)C` [SW IV-52], in experiment [2], the “Killing activity (cell viability)” value was “minimal single-agent activity at concentrations up to 200 μM”. For the same compound, the “Blocking of SW120 uptake” value in experiment [3] is listed as “nearly incapable of blocking the uptake of SW120; also recorded: nearly incapable of interfering with the uptake of SW120”.
